Values belong to the compound of their own block, whether it stands above or below them. Where a SMILES comes first, the peptide text is derived from it.
Tests used:
HLA-A02.01 [1] = target: HLA-A02.01 (Homo sapiens, UniProt P04439, D140Y/D185E/D98H/E176V/E277Q/G131W/G231S/I119V/I121R/I166T/I218V/L300P/L318F/N151K/N90K/P208A/P217A/Q86G/Q94H/R138H/R169H/T345S); test: Class I MHC peptide binding affinity (displacement of radiolabeled reference peptide)
Method in brief: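 Peptides compete against a prebound radiolabeled reference on MHCI over 2 days at several concentrations.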

Class I MHC = Class I MHC peptide binding affinity, any other or unspecified HLA allele named in the row; design: species or system human; conditions: EGFR T790M peptides; HLA allele B08.02
HLA-A02.01 [2] = target: T1, HLA-A02.01 (Homo sapiens, UniProt P04439, D140Y/D185E/D98H/E176V/E277Q/G131W/G231S/I119V/I121R/I166T/I218V/N151K/N90K/P208A/P217A/Q86G/Q94H/R138H/R169H); test: Class I MHC peptide binding stability (pMHC-I dissociation, 125I-labeled light chain)
T1 construct: made in house; host or cells: E. coli

HLA-A24.02 = test: as above; design: species or system human
HLA-A03.01 = HLA-A03.01 (Homo sapiens, UniProt P04439); test: Class I MHC peptide binding affinity (displacement of radiolabeled reference peptide); conditions: allele A03.01; read-out: Observed Affinity (IC50; (nM))
[3] = target: 293T cells transduced with GATA3 neoORF, expressing the HLA of interest (Homo sapiens, UniProt P04439); test: Presentation of GATA3 neoantigens: HLA-eluted peptides by targeted MS/MS (PRM) (Table 14); type: cell-based; conditions: GATA3 neoORF transduced 293T cells expressing HLA-A*03:01 protein
Procedure: (§1) To assess whether antigens could be processed and presented from the larger polypeptide context, peptides eluted from HLA molecules isolated from cells expressing the genes of interest were analyzed by tandem mass spectrometry (MS/MS).
(§2) Between 50 and 700 million of the transduced cells expressing peptides encoded by the GATA3 neoORF sequence were cultured and peptides were eluted from HLA-peptide complexes using an acid wash. Eluted peptides were then analyzed by targeted MS/MS using PRM. Spectral comparison between peptides derived from GATA3 neoORF and corresponding synthetic peptides were performed to confirm each detection.

[4] = test system: 293T cells transduced with GATA3 neoORF, expressing the HLA of interest; test: as above; type: cell-based, human; conditions: GATA3 neoORF transduced 293T cells expressing HLA-A*11:01 protein
Procedure: as §1, §2

HLA-B07.02 = HLA-B07.02 (Homo sapiens, UniProt P01889); test: Class I MHC peptide binding affinity (displacement of radiolabeled reference peptide); conditions: Allele B07.02; read-out: Observed Affinity (IC50; (nM))
[5] = target: 293T cells transduced with GATA3 neoORF, expressing the HLA of interest (Homo sapiens, UniProt P01889); test: Presentation of GATA3 neoantigens: HLA-eluted peptides by targeted MS/MS (PRM) (Table 14); type: cell-based; conditions: GATA3 neoORF transduced 293T cells expressing HLA-B*07:02 protein
Procedure: as §1, §2

CD8+ T cells = test: Ex vivo induction of antigen-specific CD8 T cells (FLT3L-treated PBMCs), MHC tetramer/multimer readout; type: cell-based, human; design: key to Epitope prefixed with '*': positive CD8+ T cell response: The epitopes that are prefixed with ‘*’, were shown to induce positive CD8+ T cell response in either one or both the donors; key to Immunogenicity (#donors/2): positive CD8+ T cell response in either one or both the donors (marked as 1 or 2 in column 6 respectively); positive CD8+ T cell response in either one or both the donors (marked as 1 or 2 in column 6 respectively); conditions: HLA-A02:01
Procedure: Step 1: Plate 5 million PBMCs (or cells of interest) in each well of 24 well plate with FLT3L in 2 mL AIM V media Step 2: Peptide loading and maturation—in AIMV 1. Mix peptide pool of interest (except for no peptide condition) with PBMCs (or cells of interest) in respective wells.
3. Mix Maturation cocktail (including TNF-α, IL-1β, PGE1, and IL-7) to each well after incubation. Step 3: Add human serum to each well at a final concentration of 10% by volume and mix. Step 4: Replace the media with fresh RPMI+10% HS media supplemented with IL7+IL15. Step 5: Replace the media with fresh 20/80 media supplemented with IL7+IL15 during the period of incubation every 1-6 days. Step 6: Plate 5 million PBMCs (or cells of interest) in each well of new 6-well plate with FLT3L in 2 ml AIM V media Step 7: Peptide loading and maturation for re-stimulation—(new plates) 1. Mix peptide pool of interest (except for no peptide condition) with PBMCs (or cells of interest) in respective wells
1. […]
MHC tetramers are purchased or manufactured on-site according to methods known by one of ordinary skill, and are used to measure peptide-specific T cell expansion in the immunogenicity assays. […] Cells are acquired on a LSR Fortessa (Becton Dickinson) instrument, and are analyzed by use of FlowJo software (Becton Dickinson). […]

Compound: CC[C@H](C)[C@H](NC(=O)[C@H](CC(C)C)NC(=O)[C@@H](N)CCC(N)=O)C(=O)N[C@@H](CCSC)C(=O)N[C@@H](CCC(N)=O)C(=O)N[C@@H](CC(C)C)C(=O)N[C@@H](CCSC)C(=O)N1CCC[C@H]1C(=O)N[C@@H](Cc1ccccc1)C(=O)O
Kd (HLA-A02.01 [1]; EGFR T790M peptides, HLA allele A02.01, read-out: Affinity): 0.193 µM
IC50 (HLA-A02.01 [1]; allele A02.01, read-out: Observed Affinity (IC50, (nM))): 227 nM
Kd (Class I MHC): 5.59 µM
Stability (half-life (hr.)) (HLA-A02.01 [2]; EGFR T790M peptides, HLA allele A02.01): 20.44 min
Stability (T1/2 (h)) (HLA-A02.01 [2]; allele A02.01): 0.3 h
Stability (half-life (hr.)) (HLA-A24.02; EGFR T790M peptides, HLA allele A24.02): 22.12 min
Stability (T1/2 (h)) (HLA-A24.02; allele A24.02): 0.4 h

IC50 (HLA-A03.01): 2.5 nM
detected by mass spectrometry (peptide eluted from HLA-peptide complexes) [3]: detected
Compound: CC[C@H](C)[C@H](NC(=O)[C@@H](N)CCCCN)C(=O)N[C@@H](CCSC)C(=O)N[C@@H](Cc1ccccc1)C(=O)N[C@@H](C)C(=O)N[C@H](C(=O)N[C@@H](CC(C)C)C(=O)N[C@@H](CCC(N)=O)C(=O)N[C@@H](CCCNC(=N)N)C(=O)O)[C@@H](C)O (H-KIMFATLQR-OH; N-terminus and C-terminus assumed)
detected by mass spectrometry (peptide eluted from HLA-peptide complexes) [4]: detected

IC50 (HLA-B07.02): 98.1 nM
detected by mass spectrometry (peptide eluted from HLA-peptide complexes) [5]: detected
Compound: CSCC[C@H](NC(=O)[C@H](Cc1ccc(O)cc1)NC(=O)CNC(=O)[C@H](CC(=O)O)NC(=O)[C@H](CCCNC(=N)N)NC(=O)[C@H](CCCCN)NC(=O)[C@@H]1CCCN1C(=O)[C@@H](N)CCCCN)C(=O)N[C@@H](Cc1ccccc1)C(=O)N[C@@H](CC(C)C)C(=O)O (H-KPKRDGYMFL-OH; N-terminus and C-terminus assumed)

Compound: VLDCCISLL
Epitope prefixed with '*': positive CD8+ T cell response (CD8+ T cells; in either one or both the donors): *VLDCCISLL
Immunogenicity (#donors/2) (CD8+ T cells; positive CD8+ T cell response, number of donors out of 2): 1

— patent US20220282217A1, “COMPOSITIONS AND METHODS FOR PREPARING T CELL COMPOSITIONS AND USES THEREOF” (priority 2019, published 2022)
